Laboratory results reported in patent US10005750B2, “Developing potent urate transporter inhibitors: compounds designed for their uricosuric action” (priority 2010, dated 2018).
Blank lines part the entries; values can stand above or below the molecule they belong to.

Tests used:
[1] = oral; 7 (100 mg/kg) versus 4 (300 mg/day) or 5 (1000 mg/day); cited from earlier work
[2] = target: T1, hURAT1 (Homo sapiens, UniProt Q96S37); set-up: expressed in transfected cells; host or cells: Xenopus laevis oocytes injected with capped cRNA; settings: previous results of the applicants' laboratories; cited from earlier work
T1 sequence (Q96S37 1-553): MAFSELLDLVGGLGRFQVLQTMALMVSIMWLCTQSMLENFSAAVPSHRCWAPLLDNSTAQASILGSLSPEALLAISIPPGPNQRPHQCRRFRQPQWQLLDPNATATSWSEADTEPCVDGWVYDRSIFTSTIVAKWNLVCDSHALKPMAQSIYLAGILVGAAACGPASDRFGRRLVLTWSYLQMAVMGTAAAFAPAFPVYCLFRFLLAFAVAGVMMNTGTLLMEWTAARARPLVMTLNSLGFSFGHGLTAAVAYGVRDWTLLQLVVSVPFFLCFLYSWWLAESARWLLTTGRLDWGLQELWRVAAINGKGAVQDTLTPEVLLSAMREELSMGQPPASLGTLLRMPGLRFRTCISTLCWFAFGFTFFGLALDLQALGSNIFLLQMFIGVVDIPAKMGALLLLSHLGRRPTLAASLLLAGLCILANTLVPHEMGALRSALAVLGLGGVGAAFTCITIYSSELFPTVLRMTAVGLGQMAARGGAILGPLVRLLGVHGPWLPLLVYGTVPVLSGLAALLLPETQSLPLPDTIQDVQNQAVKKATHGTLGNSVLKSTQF

[3] = target: T1, hURAT1; assay: [14C]urate uptake inhibition in Xenopus oocytes expressing hURAT1; format: cell-based; set-up: expressed in transfected cells; host or cells: Xenopus laevis oocytes injected with capped cRNA; settings: 60 min; for IC50: 14C-uric acid uptake; for 14C-urate transport inhibition: test compound at 50 μM
Description: cRNA synthesis and oocyte injection. The hURATv1 (pCMV6-XL5) plasmids were linearized with XbaI and hURAT2 (pCMV-SPORT6) plasmids were linearized with XhoI. The cRNAs were synthesized in vitro with T7 RNA polymerase (for hURATv1) or SP6 RNA polymerase (for hURAT2) using mMessage mMachine® High yield capped RNA transcription kit (Ambion, Austin, Tex., USA). The polyadenylation of cRNA at 3′-end was performed using poly(A) tailing kit (Ambion, Austin, Tex., USA). Female Xenopus frogs (African clawed frogs; 95-120 g) were purchased from Sato Zoushoku (Chiba, Japan) and nurtured in tap water (19±3° C.). […] The oocytes were washed in Ca^2+-free solution and transferred to ND96 solution (96.0 mM NaCl, 2.0 mM KCl, 1.0 mM CaCl2, 1.0 mM MgCl2.6H2O and 5.0 mM HEPES, pH 7.5). Defolliculated Xenopus oocytes (stage 1V and V) were injected with 25 ng of capped cRNA and incubated at 18° C. for 2-3 days in ND96 solution containing gentamicin (50 μg/ml) and 2.5 mM sodium pyruvate.
Inhibition study. After incubation of cRNA-injected oocytes (2-3 days), uptake experiments were performed at room temperature in ND96 solution. […] The uptake was terminated by washing the oocytes with ice-cold uptake solution (5 times @ 1.0 ml each) after 60 min of incubation. The oocytes were solubilized with 5% (w/v) SDS and the radioactivity content determined using liquid scintillation counter (Aloka 3100; Aloka Co., Ltd. Tokyo, Japan). The urate uptake by non-injected (control) oocytes was subtracted from oocytes expressing hURAT1, hURATv1 or hURAT2. The data are presented and reported as the % inhibition. The IC50 data were conducted using different compound concentrations.
We conducted a general screen where ^14C-uric acid ([…]) and test compound (50 μM) were placed in the extracellular fluid. Radioactivity inside the oocyte was analyzed after 60 min. […] The IC50 values were generated using a sigmoidal dose-response (variable slope) relationship.

[4] = target: T1, hURAT1; assay: MDCK-hURAT1 data (Endou and Olkawa, 2009); format: cell-based; set-up: expressed in transfected cells; settings: 8 versus 7, MDCK-hURAT1 data
[5] = tested on: hURAT1, hURAT2, and hURATv1; assay: combined % inhibition of urate transport in oocytes expressing hURAT1, hURAT2 or hURATv1; format: cell-based, human; settings: sum over the three transporters
Description: cRNA synthesis and oocyte injection. The hURATv1 (pCMV6-XL5) plasmids were linearized with XbaI and hURAT2 (pCMV-SPORT6) plasmids were linearized with XhoI. The cRNAs were synthesized in vitro with T7 RNA polymerase (for hURATv1) or SP6 RNA polymerase (for hURAT2) using mMessage mMachine® High yield capped RNA transcription kit (Ambion, Austin, Tex., USA). The polyadenylation of cRNA at 3′-end was performed using poly(A) tailing kit (Ambion, Austin, Tex., USA). Female Xenopus frogs (African clawed frogs; 95-120 g) were purchased from Sato Zoushoku (Chiba, Japan) and nurtured in tap water (19±3° C.). Oocytes (1.23±0.10 mg/oocyte) isolated from Xenopus laevis were defolliculated with 1.0 mg/ml collagenase in Ca^2+-free solution (96.0 mM NaCl, 2.0 mM KCl, 1.0 mM MgCl2.6H2O and 5.0 mM HEPES, pH 7.5) at 25+2° C. for 2.0 h. The oocytes were washed in Ca^2+-free solution and transferred to ND96 solution (96.0 mM NaCl, 2.0 mM KCl, 1.0 mM CaCl2, 1.0 mM MgCl2.6H2O and 5.0 mM HEPES, pH 7.5). Defolliculated Xenopus oocytes (stage 1V and V) were injected with 25 ng of capped cRNA and incubated at 18° C. for 2-3 days in ND96 solution containing gentamicin (50 μg/ml) and 2.5 mM sodium pyruvate.
Inhibition study. […] The oocytes were solubilized with 5% (w/v) SDS and the radioactivity content determined using liquid scintillation counter (Aloka 3100; Aloka Co., Ltd. Tokyo, Japan). […]

SMILES: CCc1oc2ccccc2c1C(=O)c1cc(Br)c(O)c(Br)c1 [Compound 7, (3,5-Dibromo-4-hydroxyphenyl)(2-ethylbenzofuran-3-yl)methanone]
physiological effect (lowers urate level) [1]: greater physiological effect
hURAT1 inhibitor properties [2]: potent

SMILES: CCc1oc2cc(O)ccc2c1C(=O)c1cc(Br)c(O)c(Br)c1 [Compound 8, (3,5-dibromo-4-hydroxyphenyl)(2-ethyl-6-hydroxy-benzofuran-3-yl)methanone]
IC50 [3]: 0.138 µM
hURAT1 inhibitor properties [2]: potent
fold difference [4]: 5.7 fold

14C-urate transport inhibition [3]: weak-to-no
SMILES: CCc1oc2ccccc2c1C(=O)c1ccc(OC)cc1 [Compound 12, (2-Ethylbenzofuran-3-yl)(4-methoxyphenyl)methanone]

SMILES: CCc1oc2ccccc2c1C(=O)c1ccc(O)cc1 [Compound 13, (2-Ethylbenzofuran-3-yl)(4-hydroxyphenyl)methanone, reference compound]
IC50 [3]: 2.8 µM

14C-urate transport inhibition [3]: weak inhibition
SMILES: CCc1oc2ccc(OC)cc2c1C(=O)c1ccc(OC)cc1 [Compound 14, (2-Ethyl-5-methoxybenzofuran-3-yl)(4-methoxyphenyl)methanone]

14C-urate transport inhibition [3]: weak inhibition
SMILES: CCc1oc2c(OC)cccc2c1C(=O)c1ccc(OC)cc1 [Compound 19, (2-Ethyl-7-methoxybenzofuran-3-yl)(4-methoxyphenyl)methanone]

SMILES: CCc1oc2cc(OC)ccc2c1C(=O)c1ccc(O)cc1 [Compound 30, (2-Ethyl-6-methoxybenzofuran-3-yl)(4-hydroxyphenyl)methanone]
IC50 [3]: 3.9 µM

IC50 [3]: > 50 µM
SMILES: CCc1oc2cc(O)ccc2c1C(=O)c1ccc(OC)cc1 [Compound 31, (2-Ethyl-6-hydroxybenzofuran-3-yl)(4-methoxyphenyl)methanone]

IC50 [3]: 1.1 µM
SMILES: CCc1oc2cc(O)ccc2c1C(=O)c1ccc(O)cc1 [Compound 32, (2-ethyl-6-hydroxybenzofuran-3-yl)(4-hydroxyphenyl)methanone]

SMILES: CCc1cc2cc(OC)cc(C(=O)c3cc(Br)c(O)c(Br)c3)c2o1 [Compound 43]
IC50 [3]: 1.44 µM

SMILES: CCc1cc2cc(O)cc(C(=O)c3cc(Br)c(O)c(Br)c3)c2o1 [Compound 44, (3,5-Dibromo-4-hydroxyphenyl)(2-ethyl-5-hydroxybenzofuran-7-yl)methanone]
IC50 [3]: 0.287 µM

SMILES: CCc1oc2ccccc2c1C(=O)c1cc(Br)c(OC)c(Br)c1 [Compound 85, (3,5-Dibromo-4-methoxyphenyl)(2-ethylbenzofuran-3-yl)methanone]
combined % inhibition for hURAT1, hURAT2, and hURATv1 [5]: < 160%
